Results reported in patent publication US8389551B2, “Optical enantiomers of phenyramidol and process for chiral synthesis” (Fermenta Biotech (UK) Limited, priority 2006, dated 2013).
Marks after values point to notes of the source that are not given here.

What was measured:
Type in all cases: in vivo
[1] = system: rats; test: Anti-arthritic activity, thickness of joint of right paw after injection of formalin; details: for Thickness of Joint (in cm) 0 hr: 0 hr (initial); for Thickness of Joint (in cm) 0 hr / Thickness of Joint (in cm) 2 hr: Phen 3 2400 mg, Phen 2 and Phen 4 1200 mg human daily dose extrapolated to rats, Diclofenac sodium 2 mg/Kg; for Thickness of Joint (in cm) 2 hr: 2 hr after formalin; for Thickness of Joint (in cm) 4 hr: 4 hr after formalin; for Thickness of Joint (in cm) 4 hr / Thickness of Joint (in cm) 8 hr / Thickness of Joint (in cm) 24 hr / Thickness of Joint (in cm) 48 hr / Thickness of Joint (in cm) 72 hr: doses as E38; for Thickness of Joint (in cm) 8 hr: 8 hr after formalin; for Thickness of Joint (in cm) 24 hr: 24 hr after formalin; for Thickness of Joint (in cm) 48 hr: 48 hr after formalin; for Thickness of Joint (in cm) 72 hr: 72 hr after formalin; for difference from normal control in thickness of the joint: at 2 hr, One Way ANOVA followed by Dunnett's Test; for Anti-arthritic activity (conclusion): formalin model, FIG. 18
Protocol: The anti-arthritic activity was assessed using following time points after the injection of formalin 2 hrs, 4 hrs, 8 hrs, 24 hrs, 48 hrs and 72 hrs. The control group (group 1) received 1% gum acacia. The Groups 2, 3, and 4 received the formulations viz: Phen 2, Phen 3 and Phen 4 respectively. Diclofenac was used as positive control and given to group 5. Human daily dose of 2400 mg (800 mg×3 times) was extrapolated to rats for 5 (racemate) Phen 3 and human daily dose of 1200 mg (400 mg×3 times) was extrapolated to rats for (isomer 1) Phen 2 and (isomer 2) Phen 4. Diclofenac sodium 2 mg/Kg was used as reference product.
Initial or 0 hr thickness of the joint of right paw of each animal was recorded. The thickness of the joint was measured using Vernier calipers at different time intervals after the injection of formalin. These efficacy variables were assessed at six time points 2 hrs, 4 hrs, 8 hrs, 24 hrs, 48 hrs and 72 hrs for each and every animal.

[2] = system: mice; test: Central analgesic activity, tail flick analgesiometer
[3] = system: Wistar rats; test: Anti-inflammatory activity, carrageenin induced paw edema (plethysmometer); details: for % Increase in Paw volume 1 HR: 1 HR after carrageenan, oral, racemate 2400 mg, isomers 1200 mg human daily dose extrapolated to rats, Indomethacin 15 mg/kg, diclofenac 10 mg/kg; for % Increase in Paw volume 2 HR: 2 HR after carrageenan; for % Increase in Paw volume 2 HR / % Increase in Paw volume 3 HR / % Increase in Paw volume 5 HR: doses as E46; for % Increase in Paw volume 3 HR: 3 HR after carrageenan; for % Increase in Paw volume 5 HR: 5 HR after carrageenan
Protocol: Further, the investigations were carried out to determine the anti-inflammatory activities of the molecule of the present invention. Wistar rats weighing between 160-210 gm were divided into 6 groups of 10 animals each. Group I served as control (Placebo) and receive CMC and Group II & III received anti-inflammatory control (positive control) (Diclofenac & Indomethacin respectively). Group IV to VI were treated orally with test formulations. After 15 min. of drug administration, inflammation was induced by injecting 0.1 ml of freshly prepared 1% carrageenin (in normal saline) into the left hind paw of the rat. The paw volume of the […] was measured by measuring the displace fluid in other hand of plethysmometer.
Indomethacin (15 mg/kg and declofenac (10 mg/kg) was used as reference product. Percent increased in rat paw edema was measured and compare to normal control at each time intervals.
The antiinflammatory activity was assessed plethysmographically using following time points after the administration of carrageenan, 1 hr, 2 hrs, 3 hrs and 5 hrs.

[4] = system: swiss albino mice; test: Analgesic activity, acetic acid induced writhing method
Protocol: The objective of the study was to evaluate the analgesic activity of the tested formulations of the compounds of the present invention. The test was conducted in Swiss albino mice using acetic acid induced writhing method. A total of 78 pre-screened mice (showing writhing response within 10 minutes*) were divided into 6 groups of 13 animals (6 males+7 females) each. The animals showing no writhing response within 10 mins were excluded. Diclofenac and pentazocine were used as positive controls. The formulations were given orally to the different groups of animals and the number of writhes counted for a period of 15 minutes, after the onset of writhes. If the onset of writhes occurred 30 after 10 minutes the number of writhes was recorded as V. The time of onset of writhes was recorded for each animal.
The control group received 1% gum acacia. The Groups 2, 3, and 4 received the formulations viz: Phen 2; Phen 3 and Phen 4 respectively. Diclofenac and pentazocine were used as positive control and given to groups 5 and 6 respectively. Diclofenac, a potent analgesic & anti-inflammatory agent; and 5 pentazocine an opoid analgesic were selected for comparative evaluation of test formulations. Both these drugs were administered to different groups of animals at the dose of 2 mg/kg. The group 1 (Phen 1) served as—Ve Control group in the study. Phen 5 (Diclofenac—2 mg/kg) and Positive Control: Phen 6 (Pentazocine 2 mg/kg) served as positive controls.
Human daily dose of 2400 mg (800 mg×3 times) was extrapolated to mice for Phen3 and human daily dose of 1200 mg (400 mg×3 times) was extrapolated to mice for Phen2 and Phen 4. The numbers of writhes observed are given below in Table 4 for each formulation.
Further, the evaluation of analgesic activity was carried out using variable dosage forms with different groups. A total of 100 animals (50 males+50 females) were selected randomly and distributed into ten main groups with 10 animals per group (5 M+5 F). Human daily dose of 2400 mg (800 mg×3 times) was extrapolated to mice for Phen 3 (Phenyramidol Racemic (Hydrochloride) and human daily dose of 1200 mg (400 mg×3 times), 1800 mg (400 mg×4.5 times), 2000 mg (400 mg×5 times) & 2400 mg (400 mg×6 times) was extrapolated to mice for Phen2 and Phen4 groups.
The control group 1 received 1% gum acacia and served as negative control group. Groups 2, 3, 4 & 5 received the formulation Phen2. Groups 6, 7, 8 & 9 received the formulation Phen 4 (Isomer 2) & Group 10 received the formulation Phen 3 (Racemic).
Further, one more experiment was done with phenyramidol hydrochloride to evaluate the analgesic activity at lesser dosage levels using acetic acid induced method. A total of 50 animals (25 males+25 females) were selected and randomly distributed into five main groups with 10 animals per group (5 M+5 F). 5 Human daily dose of 600 mg (400×1.5 times) & 1200 mg (800 mg×1.5 times) was extrapolated to mice for Phen 3 (Racemic) and human daily dose of 600 mg (400 mg×1.5 times) was extrapolated to mice for (−) Phenyramidol Hydrochloride & (+) Phenyramidol Hydrochloride and the results are discussed in Table 6.

[5] = 1 hr. after dose, human daily dose 2400 mg or 1200 mg extrapolated to mice, cut-off 10-12 seconds
[6] = 4 hr. after dose, human daily dose 2400 mg or 1200 mg extrapolated to mice, cut-off 10-12 seconds
[7] = Table 4, oral, writhes counted 15 minutes, Phen3 human daily dose 2400 mg, Phen2 and Phen 4 1200 mg extrapolated to mice, Diclofenac and Pentazocine 2 mg/kg
[8] = Table 5, dose 2400 mg (human daily dose extrapolated to mice), mean ± SD, n = 10
[9] = Table 6, dose 600 mg (human daily dose extrapolated to mice), mean ± SD, n = 10
[10] = experiment of Table 5 (variable doses)
[11] = experiment of Table 6, lesser dosage levels

SMILES | Thickness of Joint (in cm) 0 hr [1] | Thickness of Joint (in cm) 2 hr [1] | Thickness of Joint (in cm) 4 hr [1] | Thickness of Joint (in cm) 8 hr [1] | Thickness of Joint (in cm) 24 hr [1] | Thickness of Joint (in cm) 48 hr [1] | Thickness of Joint (in cm) 72 hr [1] | Tail Flick Reaction Time (Sec.) 1 hr. [2, 5] | Tail Flick Reaction Time (Sec.) 4 hr. [2, 6] | % Increase in Paw volume 1 HR [3] | % Increase in Paw volume 2 HR [3] | % Increase in Paw volume 3 HR [3] | % Increase in Paw volume 5 HR [3] | Average no. of writhes [4, 7] | Average no. of writhes [4, 8] | Average no. of writhes [4, 9] | analgesic activity by decrease in the number of writhes induced by acetic acid ([4]; experiment of Table 4) | analgesic activity by decrease in the number of writhes induced by acetic acid [4, 10] | analgesic activity by decrease in the number of writhes induced by acetic acid [4, 11] | difference from normal control in thickness of the joint [1] | also measured
OC(CNc1ccccn1)c1ccccc1 (racemic) [Phen 3, 2-(β-hydroxyphenethylamino) pyridine, reference compound] | 0.48 ± 0.04 cm | 0.59 ± 0.03 cm | 0.59 ± 0.04 cm | 0.62 ± 0.06 cm | 0.52 ± 0.05 cm | 0.54 ± 0.05 cm | 0.55 ± 0.05 cm | 4.86 ± 3.023 s | 5.055 ± 2.735 s | 24.15 ± 7.27% | 44.73 ± 6.56% | 61.40 ± 18.21% | 47.13 ± 19.14% | 3.54 ± 3.95* | 4.20 ± 3.77* | 5.90 ± 6.14* | significant analgesic activity | significant analgesic activity | significant analgesic activity | – | analgesic activity (tail flick latency compared to control) ([2]; at 4 hr after dose administration): significant analgesic activity; Average no. of writhes ([4]; Table 6, dose 1200 mg (human daily dose extrapolated to mice), mean ± SD, n = 10): 1.50 ± 2.59*
Cl.O[C@@H](CNc1ccccn1)c1ccccc1 [(−) Phenyramidol Hydrochloride, (R)-Phenyramidol Hydrochloride Salt] | – | – | – | – | – | – | – | – | – | – | – | – | – | – | – | 3.20 ± 4.16* | – | – | significant analgesic activity | – | analgesic activity (summary statement) ([4]; confirmed by an acetic acid induced writhing method): enhanced analgesic activity
O=C(O)Cc1ccccc1Nc1c(Cl)cccc1Cl [Diclofenac, reference compound] | 0.49 ± 0.04 cm | 0.56 ± 0.04 cm | 0.56 ± 0.04 cm | 0.62 ± 0.03 cm | 0.54 ± 0.05 cm | 0.53 ± 0.05 cm | 0.51 ± 0.03 cm | 3.41 ± 1.421 s | 2.48 ± 0.654 s | 15.77 ± 13.94% | 33.39 ± 7.35 % | 43.03 ± 15.41 % | 30.44 ± 9.52% | 4.08 ± 6.32* | – | – | – | – | – | significant decrease in the thickness of the joint | –
COc1ccc2c(c1)c(CC(=O)O)c(C)n2C(=O)c1ccc(Cl)cc1 [Indomethacin] | – | – | – | – | – | – | – | – | – | 18.58 ± 11.38% | 31.27 ± 4.75 % | 41.42 ± 12.54 % | 28.86 ± 8.22 % | – | – | – | – | – | – | – | –
CC(C)=CCN1CCC2(C)c3cc(O)ccc3CC1C2C (stereo not drawn) [Pentazocine] | – | – | – | – | – | – | – | – | – | – | – | – | – | 10.62 ± 9.47* | – | – | – | – | – | – | Tail Flick Reaction Time (Sec.) 1 hr. ([2]; mouse, in vivo): 3.0 ± 0.7055 s; Tail Flick Reaction Time (Sec.) 4 hr. ([2]; mouse, in vivo): 3.0 ± 0.7055 s
O=C(O)C(=O)O.O[C@@H](CNc1ccccn1)c1ccccc1 [Phen 4, (R)-Phenyramidol Oxalate] | 0.49 ± 0.04 cm | 0.56 ± 0.05 cm | 0.56 ± 0.05 cm | 0.62 ± 0.03 cm | 0.55 ± 0.05 cm | 0.53 ± 0.04 cm | 0.51 ± 0.03 cm | – | – | 25.37 ± 10.44% | 39.90 ± 6.12% | 68.36 ± 22.20% | 49.65 ± 19.03% | 12.08 ± 4.21* | 4.50 ± 5.19* | – | significant analgesic activity | significant analgesic activity | – | significant difference (p<0.05) | Anti-arthritic activity (conclusion) [1]: exhibits Anti-arthritic activity; Anti-arthritic activity (conclusion) ([1]; listed as Phen4): significant anti-arthritic activity; Tail Flick Reaction Time (Sec.) 1 hr. ([2]; mouse, in vivo): 2.87 ± 1.071 s; Tail Flick Reaction Time (Sec.) 4 hr. ([2]; mouse, in vivo): 3.18 ± 1.540 s; Average no. of writhes ([4]; Table 5, dose 1200 mg (human daily dose extrapolated to mice), mean ± SD, n = 10): 10.50 ± 6.65*; Average no. of writhes ([4]; Table 5, dose 1800 mg (human daily dose extrapolated to mice), mean ± SD, n = 10): 6.20 ± 5.39*; Average no. of writhes ([4]; Table 5, dose 2000 mg (human daily dose extrapolated to mice), mean ± SD, n = 10): 6.00 ± 6.41*
